Assay results: patent publication US9725449B2, “Tricyclic compounds as anticancer agents” (BRISTOL-MYERS SQUIBB COMPANY, priority 2015, dated 2017)

molecular target: BRD4 (Homo sapiens, UniProt O60885); assay: Time resolved fluorescence resonance energy transfer (TR-FRET) binding assay, bromodomain BRD4; conditions: one of the FRET assays described; read-out: FRET BRD4 IC50

`CSc1ccc2c3ncc(-c4c(C)nnn4C)cc3n([C@H](c3ccccc3)C3CCOCC3)c2n1` [Example 194, 5-(Dimethyl-1H-1,2,3-triazol-5-yl)-11-(methylsulfanyl)-8-[(S)-oxan-4-yl(phenyl)methyl]-3,8,10-triazatricyclo[7.4.0.0^2,^7]trideca-1(9),2(7),3,5,10,12-hexaene] and `Cc1nnn(C)c1-c1ccc2c3ncc(C(C)(C)O)cc3n([C@@H](c3ccccc3)C3CCOCC3)c2n1` [Example 378, 2-[11-(Dimethyl-1H-1,2,3-triazol-5-yl)-8-[(R)-oxan-4-yl(phenyl)methyl]-3,8,10-triazatricyclo[7.4.0.0^2,^7]trideca-1(9),2(7),3,5,10,12-hexaen-5-yl]propan-2-ol] cannot be ordered by IC50: less than 10 nM for the first, less than 10 nM for the second.

`CCN(CCN(C)C)c1ccc2c3ncc(-c4c(OC)nnn4C)cc3n([C@H](c3ccccc3F)C3CCOCC3)c2n1` [Example 257, N-[2-(Dimethylamino)ethyl]-N-ethyl-8-[(S)-(2-fluorophenyl)(oxan-4-yl)methyl]-5-(4-methoxy-1-methyl-1H-1,2,3-triazol-5-yl)-3,8,10-triazatricyclo[7.4.0.0^2,^7]trideca-1(13),2(7),3,5,9,11-hexaen-11-amine] and “2-{8-[(3-Fluoropyridin-2-yl)(oxan-4-yl)methyl]-11-[4-(^2H3)methyl-1-methyl-1H-1,2,3-triazol-5-yl]-3,8,10-triazatricyclo[7.4.0.0^2,^7]trideca-1(9),2,4,6,10,12-hexaen-5-yl}propan-2-ol [Example 363]” cannot be ordered by IC50: less than 1 nM for the first, less than 1 nM for the second.

`[2H]C([2H])([2H])c1nnn(C)c1-c1cnc2c3c(OCC4CC4)ncc(S(C)(=O)=O)c3n([C@H](c3ccccc3)C3CCC(F)(F)CC3)c2c1` [Example 94, 13-(Cyclopropylmethoxy)-8-[(S)-(4,4-difluorocyclohexyl)(phenyl)methyl]-10-methanesulfonyl-5-[4-(^2H3)methyl-1-methyl-1H-1,2,3-triazol-5-yl]-3,8,12-triazatricyclo[7.4.0.0^2,^7]trideca-1(13),2(7),3,5,9,11-hexaene] and `Cc1noc(C)c1-c1cnc2c3cnc(Cl)cc3n(C(c3ncccc3F)C3CCOCC3)c2c1` (centres unmarked) [Example 324, 11-Chloro-5-(dimethyl-1,2-oxazol-4-yl)-8-[(3-fluoropyridin-2-yl)(oxan-4-yl)methyl]-3,8,12-triazatricyclo[7.4.0.0^2,^7]trideca-1(9),2(7),3,5,10,12-hexaene] cannot be ordered by IC50: less than 10 nM for the first, less than 1500 nM for the second.

`Cc1nnn(C)c1-c1cnc2c3cnc(Cl)cc3n(C(c3ncccc3F)C3CCOCC3)c2c1` (single isomer, unassigned) [Example 317] and `COc1ncc(Cl)c2c1c1ncc(-c3c(C)nnn3C)cc1n2[C@H](c1ccccc1)C1CCOCC1` [Example 40, 10-Chloro-5-(dimethyl-1H-1,2,3-triazol-5-yl)-13-methoxy-8-[(S)-oxan-4-yl(phenyl)methyl]-3,8,12-triazatricyclo[7.4.0.0^2,^7]trideca-1(13),2(7),3,5,9,11-hexaene] cannot be ordered by IC50: less than 1500 nM for the first, less than 1 nM for the second.

`[2H]C([2H])([2H])c1nnn(C)c1-c1cnc2c3ccc(-c4ccc(C(C)(C)O)s4)nc3n([C@H](c3ccccc3)C3CCOCC3)c2c1` [Example 176, 2-(5-{5-[4-(^2H3)Methyl-1-methyl-1H-1,2,3-triazol-5-yl]-8-[(S)-oxan-4-yl(phenyl)methyl]-3,8,10-triazatricyclo[7.4.0.0^2,^7]trideca-1(9),2(7),3,5,10,12-hexaen-11-yl}thiophen-2-yl)propan-2-ol] and `[2H]C([2H])([2H])c1nnn(C)c1-c1cnc2c3c(OCC)ncc(S(C)(=O)=O)c3n([C@H](c3ccccc3F)C3CCOCC3)c2c1` [Example 62, 13-Ethoxy-8-[(S)-(2-fluorophenyl)(oxan-4-yl)methyl]-10-methanesulfonyl-5-[4-(^2H3)methyl-1-methyl-1H-1,2,3-triazol-5-yl]-3,8,12-triazatricyclo[7.4.0.0^2,^7]trideca-1(13),2(7),3,5,9,11-hexaene] cannot be ordered by IC50: less than 10 nM for the first, less than 1 nM for the second.

`Cc1nnn(C)c1-c1cnc2c3cnc(Cl)cc3n([C@H](c3ccc(Cl)cn3)C3CCOCC3)c2c1` [Example 323] and `[2H]C([2H])([2H])c1nnn(C)c1-c1cnc2c3ccncc3n([C@H](c3ccccc3)C3CCOCC3)c2c1` [Example 299, 5-[4-(^2H3)Methyl-1-methyl-1H-1,2,3-triazol-5-yl]-8-[(S)-oxan-4-yl(phenyl)methyl]-3,8,11-triazatricyclo[7.4.0.0^2,^7]trideca-1(9),2(7),3,5,10,12-hexaene] cannot be ordered by IC50: less than 10 nM for the first, less than 1 nM for the second.

`COCCNc1nccc2c3ncc(-c4c(C)nnn4C)cc3n([C@H](c3ccccc3)C3CCOCC3)c12` [Example 9, 5-(Dimethyl-1H-1,2,3-triazol-5-yl)-N-(2-methoxyethyl)-8-[(S)-oxan-4-yl(phenyl)methyl]-3,8,11-triazatricyclo[7.4.0.0^2,^7]trideca-1(13),2(7),3,5,9,11-hexaen-10-amine] and `[2H]C([2H])([2H])c1nnn(C)c1-c1cnc2c3c(OCC)ncc(S(C)(=O)=O)c3n(C(c3ncccc3F)C3CCC(F)(F)CC3)c2c1` (centres unmarked) [Example 75, 8-[(4,4-Difluorocyclohexyl)(3-fluoropyridin-2-yl)methyl]-13-ethoxy-10-methanesulfonyl-5-[4-(^2H3)methyl-1-methyl-1H-1,2,3-triazol-5-yl]-3,8,12-triazatricyclo[7.4.0.0^2,^7]trideca-1(13),2(7),3,5,9,11-hexaene] cannot be ordered by IC50: less than 10 nM for the first, less than 1500 nM for the second.

`CC(=O)c1cnc2c3ccc(-c4c(C)nnn4C)nc3n([C@@H](c3ccccc3)C3CCOCC3)c2c1` [Example 377, 1-[11-(Dimethyl-1H-1,2,3-triazol-5-yl)-8-[(R)-oxan-4-yl(phenyl)methyl]-3,8,10-triazatricyclo[7.4.0.0^2,^7]trideca-1(9),2(7),3,5,10,12-hexaen-5-yl]ethan-1-one] and `Cc1nnn(C)c1-c1cnc2c3cnc(Cl)cc3n(C(c3ncccc3F)C3CCOCC3)c2c1` (centres unmarked) [Example 316] cannot be ordered by IC50: less than 10 nM for the first, less than 10 nM for the second.

`Cc1nnn(C)c1-c1cnc2c3ccc(N4CCS(=O)(=O)CC4C)nc3n([C@H](c3ccccc3)C3CCOCC3)c2c1` (stereo partly drawn) [Example 210, 4-[5-(Dimethyl-1H-1,2,3-triazol-5-yl)-8-[(S)-oxan-4-yl(phenyl)methyl]-3,8,10-triazatricyclo[7.4.0.0^2,^7]trideca-1(9),2(7),3,5,10,12-hexaen-11-yl]-3-methyl-1λ^6,4-thiomorpholine-1,1-dione] and `[2H]C([2H])([2H])c1nnn(C)c1-c1cnc2c3cnc(C(C)(C)O)cc3n([C@H](c3ccccc3)C3CCOCC3)c2c1` [Example 284, 2-{5-[4-(^2H3)Methyl-1-methyl-1H-1,2,3-triazol-5-yl]-8-[(S)-oxan-4-yl(phenyl)methyl]-3,8,12-triazatricyclo[7.4.0.0^2,^7]trideca-1(9),2(7),3,5,10,12-hexaen-11-yl}propan-2-ol] cannot be ordered by IC50: less than 10 nM for the first, less than 1 nM for the second.

`[2H]C([2H])([2H])c1nnn(C)c1-c1cnc2c3c(OC)ncc(S(C)(=O)=O)c3n([C@H](c3ccccc3)C3CCOCC3)c2c1` [Example 47, 10-Methanesulfonyl-13-methoxy-5-[4-(^2H3)methyl-1-methyl-1H-1,2,3-triazol-5-yl]-8-[(S)-oxan-4-yl(phenyl)methyl]-3,8,12-triazatricyclo[7.4.0.0^2,^7]trideca-1(13),2(7),3,5,9,11-hexaene] and `[2H]C([2H])([2H])c1nnn(C)c1-c1cnc2c3c(C(C)(C)O)cncc3n([C@H](c3ccccc3)C3CCOCC3)c2c1` [Example 298, 2-{5-[4-(^2H3)Methyl-1-methyl-1H-1,2,3-triazol-5-yl]-8-[(S)-oxan-4-yl(phenyl)methyl]-3,8,11-triazatricyclo[7.4.0.0^2,^7]trideca-1(9),2(7),3,5,10,12-hexaen-13-yl}propan-2-ol] cannot be ordered by IC50: less than 1 nM for the first, less than 10 nM for the second.

`[2H]C([2H])([2H])C(O)(c1cc2c(cn1)c1ncc(-c3c(C)noc3C)cc1n2[C@H](c1ccc(F)cc1)C1CCOCC1)C([2H])([2H])[2H]` [Example 224, 2-[5-(Dimethyl-1,2-oxazol-4-yl)-8-[(S)-(4-fluorophenyl)(oxan-4-yl)methyl]-3,8,12-triazatricyclo[7.4.0.0^2,^7]trideca-1(13),2(7),3,5,9,11-hexaen-11-yl](^2H6)propan-2-ol] and `[2H]C([2H])([2H])c1nnn(C)c1-c1cnc2c3c(OC)nc(C(C)=O)cc3n([C@H](c3ncccc3F)C3CCOCC3)c2c1` [Example 308, 1-{8-[(S)-(3-Fluoropyridin-2-yl)(oxan-4-yl)methyl]-13-methoxy-5-[4-(^2H3)methyl-1-methyl-1H-1,2,3-triazol-5-yl]-3,8,12-triazatricyclo[7.4.0.0^2,^7]trideca-1(9),2(7),3,5,10,12-hexaen-11-yl}ethan-1-one] cannot be ordered by IC50: less than 10 nM for the first, less than 10 nM for the second.

`Cc1nnn(C)c1-c1cnc2c3c(Cl)ncc(Cl)c3n([C@H](c3ccccc3)C3CCOCC3)c2c1` [Example 36, 10,13-Dichloro-5-(dimethyl-1H-1,2,3-triazol-5-yl)-8-[(S)-oxan-4-yl(phenyl)methyl]-3,8,12-triazatricyclo[7.4.0.0^2,^7]trideca-1(13),2(7),3,5,9,11-hexaene] and `[2H]C([2H])([2H])c1nnn(C)c1-c1cnc2c3c(OC)nc(C(C)=O)cc3n([C@@H](c3ncccc3F)C3CCOCC3)c2c1` [Example 310, 1-{8-[(R)-(3-Fluoropyridin-2-yl)(oxan-4-yl)methyl]-13-methoxy-5-[4-(^2H3)methyl-1-methyl-1H-1,2,3-triazol-5-yl]-3,8,12-triazatricyclo[7.4.0.0^2,^7]trideca-1(9),2(7),3,5,10,12-hexaen-11-yl}ethan-1-one] cannot be ordered by IC50: less than 10 nM for the first, less than 10 nM for the second.

`Cc1nnn(C)c1-c1cnc2c3ccc(N4CCC(C)(O)CC4)nc3n([C@H](c3ccccc3)C3CCOCC3)c2c1` [Example 180, 1-[5-(Dimethyl-1H-1,2,3-triazol-5-yl)-8-[(S)-oxan-4-yl(phenyl)methyl]-3,8,10-triazatricyclo[7.4.0.0^2,^7]trideca-1(9),2(7),3,5,10,12-hexaen-11-yl]-4-methylpiperidin-4-ol] and `Cc1nnn(C)c1-c1cnc2c3ccc(S(C)(=O)=O)nc3n([C@H](c3ccccc3F)C3CCOCC3)c2c1` [Example 221, 5-(Dimethyl-1H-1,2,3-triazol-5-yl)-8-[(S)-(2-fluorophenyl)(oxan-4-yl)methyl]-11-methanesulfonyl-3,8,10-triazatricyclo[7.4.0.0^2,^7]trideca-1(13),2(7),3,5,9,11-hexaene] cannot be ordered by IC50: less than 1 nM for the first, less than 10 nM for the second.
